This note sets out measurements from patent US20260070906A1, “IMIDAZO[4,5-C]PYRIDINE COMPOUNDS FOR THE TREATMENT OF CANCER” (Hoffmann-La Roche Inc., priority 2023, published 2026).

The target of one test is T1, human TLR7 (Homo sapiens, UniProt Q9NYK1).
T1 construct: host or cells: HEK293-Blue-hTLR7 (HEK293)
T1 sequence (Q9NYK1 27-1049): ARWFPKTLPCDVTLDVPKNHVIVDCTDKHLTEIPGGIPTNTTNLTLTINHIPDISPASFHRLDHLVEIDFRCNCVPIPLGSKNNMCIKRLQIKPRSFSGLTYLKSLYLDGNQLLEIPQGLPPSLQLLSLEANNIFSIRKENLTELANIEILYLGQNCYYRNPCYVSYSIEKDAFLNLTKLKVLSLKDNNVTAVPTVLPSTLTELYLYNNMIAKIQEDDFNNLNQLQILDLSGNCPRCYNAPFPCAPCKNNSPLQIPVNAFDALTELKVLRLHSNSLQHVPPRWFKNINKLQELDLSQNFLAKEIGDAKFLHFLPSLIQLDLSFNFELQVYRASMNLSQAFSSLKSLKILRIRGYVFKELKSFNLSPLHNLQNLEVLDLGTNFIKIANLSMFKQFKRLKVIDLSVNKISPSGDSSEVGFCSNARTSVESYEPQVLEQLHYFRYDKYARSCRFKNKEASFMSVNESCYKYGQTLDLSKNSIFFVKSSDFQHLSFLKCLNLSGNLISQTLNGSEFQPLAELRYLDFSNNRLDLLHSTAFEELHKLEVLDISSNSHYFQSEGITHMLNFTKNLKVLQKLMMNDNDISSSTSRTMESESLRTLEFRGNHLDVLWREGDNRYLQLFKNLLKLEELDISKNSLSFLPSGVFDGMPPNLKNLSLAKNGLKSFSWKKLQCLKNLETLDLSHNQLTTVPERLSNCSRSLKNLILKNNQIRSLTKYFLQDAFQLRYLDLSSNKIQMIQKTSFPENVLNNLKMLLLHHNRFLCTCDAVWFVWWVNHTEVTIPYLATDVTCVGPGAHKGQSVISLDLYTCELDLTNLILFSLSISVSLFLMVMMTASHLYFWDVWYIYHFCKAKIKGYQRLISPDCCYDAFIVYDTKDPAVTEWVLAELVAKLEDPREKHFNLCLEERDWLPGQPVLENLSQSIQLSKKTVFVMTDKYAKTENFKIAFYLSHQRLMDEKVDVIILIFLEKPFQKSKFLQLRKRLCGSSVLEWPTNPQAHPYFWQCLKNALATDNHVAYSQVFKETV
As to the kind of experiment: HEK293-Blue-hTLR7 cells assay (NF-κB SEAP reporter). The following applies: 20 hrs incubation, agonism. The format is cell-based. An excerpt:
A stable HEK293-Blue-hTLR7 cell line was purchased from InvivoGen (Cat. #: hkb-htlr7, San Diego, California, USA). These cells were designed for studying the stimulation of human TLR7 by monitoring the activation of NF-κB. A SEAP (secreted embryonic alkaline phosphatase) reporter gene was placed under the control of the IFN-β minimal promoter fused to five NF-κB and AP-1-binding sites. The SEAP was induced by activating NF-κB and AP-1 via stimulating HEK-Blue hTLR7 cells with TLR7 ligands. Therefore the reporter expression was regulated by the NF-κB promoter upon stimulation of human TLR7 for 20 hrs. The cell culture supernatant SEAP reporter activity was determined using QUANTI-Blue™ kit (Cat. #: rep-qbl, Invivogen, San Diego, Ca, USA) at a wavelength of 650 nm, a detection medium that turns purple or blue in the presence of alkaline phosphatase.
HEK293-Blue-hTLR7 cells were incubated at a density of 250,000˜450,000 cells/mL in a volume of 180 μL in a 96-well plate in Dulbecco's Modified Eagle's medium (DMEM) containing 4.5 g/L glucose, 100 U/mL penicillin, 100 μg/mL streptomycin, 100 μg/mL Normocin, 1% (V/V) GlutaMAX™, 10% (V/V) heat-inactivated fetal bovine serum for 24 hrs. Then the HEK293-Blue-hTLR-7 cells were incubated with addition of 20 μL test compound in a serial dilution in the presence of final DMSO at 1% and perform incubation under 37° C. in a CO2 incubator for 20 hrs. Then 20 μL of the supernatant from each well was incubated with 180 μL Quanti-blue substrate solution at 37° C. for 1 hours and the absorbance was read at 620-655 nm using a spectrophotometer. The signalling pathway that TLR7 activation leads to downstream NF-κB activation has been widely accepted, and therefore similar reporter assay was also widely used for evaluating TLR7 agonist (Tsuneyasu Kaisho and Takashi Tanaka, Trends in Immunology, Volume 29, Issue 7, July 2008, […]; Hiroaki Hemmi et al, Nature Immunology 3, 196-200 (2002)).

Another test has as its target T2, human TLR8 (Homo sapiens, UniProt Q9NR97).
T2 construct: host or cells: HEK293-Blue-hTLR8 (HEK293)
T2 sequence (Q9NR97 27-1041): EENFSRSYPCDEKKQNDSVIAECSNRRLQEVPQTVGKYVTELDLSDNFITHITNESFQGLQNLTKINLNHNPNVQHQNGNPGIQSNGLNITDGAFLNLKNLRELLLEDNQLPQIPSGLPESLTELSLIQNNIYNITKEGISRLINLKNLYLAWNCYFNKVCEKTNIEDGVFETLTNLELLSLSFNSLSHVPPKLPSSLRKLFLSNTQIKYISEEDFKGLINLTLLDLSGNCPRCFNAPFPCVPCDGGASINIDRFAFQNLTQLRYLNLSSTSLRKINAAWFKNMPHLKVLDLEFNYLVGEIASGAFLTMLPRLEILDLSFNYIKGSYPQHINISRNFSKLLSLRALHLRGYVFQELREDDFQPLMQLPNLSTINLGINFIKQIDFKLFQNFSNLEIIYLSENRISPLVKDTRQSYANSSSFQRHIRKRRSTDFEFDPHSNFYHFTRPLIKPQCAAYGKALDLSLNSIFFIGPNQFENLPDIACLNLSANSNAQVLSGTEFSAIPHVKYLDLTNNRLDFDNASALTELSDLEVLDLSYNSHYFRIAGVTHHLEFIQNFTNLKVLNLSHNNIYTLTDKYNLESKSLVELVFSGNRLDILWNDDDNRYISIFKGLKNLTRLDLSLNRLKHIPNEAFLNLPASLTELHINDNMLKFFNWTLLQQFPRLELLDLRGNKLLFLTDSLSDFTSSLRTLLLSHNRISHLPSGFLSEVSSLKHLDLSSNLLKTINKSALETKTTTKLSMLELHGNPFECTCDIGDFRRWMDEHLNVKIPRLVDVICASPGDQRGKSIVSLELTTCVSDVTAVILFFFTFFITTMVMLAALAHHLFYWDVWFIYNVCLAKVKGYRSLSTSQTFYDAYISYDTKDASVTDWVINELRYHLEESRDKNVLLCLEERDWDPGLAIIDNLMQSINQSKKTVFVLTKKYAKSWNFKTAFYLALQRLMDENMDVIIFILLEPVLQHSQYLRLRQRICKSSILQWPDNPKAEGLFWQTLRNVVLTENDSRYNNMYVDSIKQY
As to the kind of experiment: HEK293-Blue-hTLR8 cells assay (NF-κB SEAP reporter). It counts as cell-based. The following applies: 20 hours incubation, agonism. From the text: A stable HEK293-Blue-hTLR8 cell line was purchased from InvivoGen (Cat. #: hkb-htlr8, San Diego, California, USA). These cells were designed for studying the stimulation of human TLR8 by monitoring the activation of NF-κB. A SEAP (secreted embryonic alkaline phosphatase) reporter gene was placed under the control of the IFN-β minimal promoter fused to five NF-κB and AP-1-binding sites. The SEAP was induced by activating NF-κB and AP-1 via stimulating HEK-Blue hTLR8 cells with TLR8 ligands. Therefore the reporter expression was regulated by the NF-κB promoter upon stimulation of human TLR8. The cell culture supernatant SEAP reporter activity was determined using QUANTI-Blue™ kit (Cat. #: rep-qbl, Invivogen, San Diego, Ca, USA) at a wavelength of 650 nm, a detection medium that turns purple to blue in the presence of alkaline phosphatase.
HEK293-Blue-hTLR8 cells were incubated at a density of 250,000-450,000 cells/mL in a volume of 180 μL in a 96-well plate in Dulbecco's Modified Eagle's medium (DMEM) containing 4.5 g/L glucose, 100 U/mL penicillin, 100 μg/mL streptomycin, 100 μg/mL Normocin, 1% (V/V) GlutaMAX™, 10% (v/v) heat-inactivated fetal bovine serum for 24 hours. Then the HEK293-Blue-hTLR8 cells were incubated with addition of 20 μL test compound in a serial dilution in the presence of final DMSO at 1% and perform incubation under 37° C. in a CO2 incubator for 20 hours. Then 20 μL of the supernatant from each well was incubated with 180 μL Quanti-blue substrate solution at 37° C. for 1 hours and the absorbance was read at 620-655 nm using a spectrophotometer. The signalling pathway that TLR8 activation leads to downstream NF-κB activation has been widely accepted, and therefore similar reporter assay was also widely used for evaluating TLR8 agonist.

As to `CCOCc1nc2c(N)nc(C)c(SCCc3ccc(CN(C)C)c(O)c3)c2[nH]1` [Example 13, 5-[2-[[4-amino-2-(ethoxymethyl)-6-methyl-LH-imidazo[4,5-c]pyridin-7-yl]sulfanyl]ethyl]-2-[(dimethylamino)methyl]phenol], the EC50 at human TLR7 amounted to 12 nM; on human TLR8 it was 19 nM.

For `CCCCc1nc2c(N)nc(C)c(Sc3ccc(CN(C)C)cc3)c2[nH]1` [Example 14, 2-butyl-7-[4-[(dimethylamino)methyl]phenyl]sulfanyl-6-methyl-1H-imidazo[4,5-c]pyridin-4-amine], the EC50 was 15 nM at human TLR7 and 14 nM at human TLR8.

Regarding `CCCCc1nc2c(N)nc(C)c(SCCc3ccc(CN(C)C)cc3)c2[nH]1` [Example 15, 2-butyl-7-[2-[4-[(dimethylamino)methyl]phenyl]ethylsulfanyl]-6-methyl-1H-imidazo[4,5-c]pyridin-4-amine], the EC50 at human TLR7 amounted to 6 nM; at human TLR8, 22 nM.

As to `CCOCc1nc2c(N)nc(C)c(Sc3ccc(CN(C)C)c(C)c3O)c2[nH]1` [Example 16, 6-[[4-amino-2-(ethoxymethyl)-6-methyl-1H-imidazo[4,5-c]pyridin-7-yl]sulfanyl]-3-[(dimethylamino)methyl]-2-methyl-phenol], the EC50 on human TLR7 amounted to 31 nM; on human TLR8 it was 22 nM.

With `CCOCc1nc2c(N)nc(C)c(Sc3ccc(CN(CC)CC)cc3O)c2[nH]1` [Example 17, 2-[[4-amino-2-(ethoxymethyl)-6-methyl-1H-imidazo[4,5-c]pyridin-7-yl]sulfanyl]-5-(diethylaminomethyl)phenol], the EC50 was 24 nM on human TLR7 and 56 nM at human TLR8.

Consider `CCOCc1nc2c(N)nc(C)c(Sc3ccc(CN(C)C)c4cc[nH]c34)c2[nH]1` [Example 18, 7-[[4-[(dimethylamino)methyl]-1H-indol-7-yl]sulfanyl]-2-(ethoxymethyl)-6-methyl-1H-imidazo[4,5-c]pyridin-4-amine], for which the figures for the EC50 on human TLR7 and at human TLR8 were 9 nM and 19 nM, respectively.

As for `CCOCc1nc2c(N)nc(C)c(Sc3ccc(CN(C)C)c4cn[nH]c34)c2[nH]1` [Example 19, 7-[[4-[(dimethylamino)methyl]-1H-indazol-7-yl]sulfanyl]-2-(ethoxymethyl)-6-methyl-1H-imidazo[4,5-c]pyridin-4-amine], the results for the EC50 at human TLR7 and on human TLR8 were 48 nM and 43 nM, respectively.

Take `CCOCc1nc2c(N)nc(C)c(Sc3ccc(CN(C)C)cc3N)c2[nH]1` [Example 20, 7-[2-amino-4-[(dimethylamino)methyl]phenyl]sulfanyl-2-(ethoxymethyl)-6-methyl-LH-imidazo[4,5-c]pyridin-4-amine]: the EC50 on human TLR7 is 22 nM; on human TLR8, 40 nM.

For the molecule `CCCCc1nc2c(N)nc(C)c(Sc3ccc(CN(C)C)cc3O)c2[nH]1` [Example 21, 2-[(4-amino-2-butyl-6-methyl-1H-imidazo[4,5-c]pyridin-7-yl)sulfanyl]-5-[(dimethylamino)methyl]phenol], the EC50 was determined as 14 nM on human TLR7 and 43 nM on human TLR8.

With `CCOCc1nc2c(N)nc(C)c(Sc3ccc(CN4CCCC4)cc3O)c2[nH]1` [Example 22, 2-[[4-amino-2-(ethoxymethyl)-6-methyl-1H-imidazo[4,5-c]pyridin-7-yl]sulfanyl]-5-(pyrrolidin-1-ylmethyl)phenol], the figures for the EC50 at human TLR7 and at human TLR8 were 28 nM and 37 nM, respectively.

For the molecule `CCOCc1nc2c(N)nc(C)c(Sc3cc(C)c(CN(C)C)cc3O)c2[nH]1` [Example 23, 2-[[4-amino-2-(ethoxymethyl)-6-methyl-1H-imidazo[4,5-c]pyridin-7-yl]sulfanyl]-5-[(dimethylamino)methyl]-4-methyl-phenol], the EC50 at human TLR7 turned out to be 25 nM; on human TLR8, 82 nM.

`CCOCc1nc2c(N)nc(C)c(Sc3ccc(C(C)N(C)C)cc3O)c2[nH]1` (stereo not drawn) [Example 24, 2-[[4-amino-2-(ethoxymethyl)-6-methyl-1H-imidazo[4,5-c]pyridin-7-yl]sulfanyl]-5-[1-(dimethylamino)ethyl]phenol]: the figures for the 50% effective concentration (EC50) on human TLR7 and on human TLR8 were 22 nM and 56 nM, respectively.
